From patent publication US11395847B2, “Acylated GLP-1/GLP-2 dual agonists” (Zealand Pharma A/S, priority 2016, dated 2022)
Where a SMILES comes first, the peptide text is derived from it.

How the values were obtained:
[1] = Chemical stability (RP-HPLC normalized purity after incubation at 40° C.); type: physicochemical; conditions: 14-day incubation, 0.2 mg/ml, normalized purity (area-%); for pH 7 normalized stability: pH 7, 40° C.
Summary of the method: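 Peptide at 0.2 mg/ml final in water adjusted to pH 6, 7, 7.5 or 9, incubated at 40° C for 14 days. Purity measured as main-peak area-% by C18 RP-HPLC (acetonitrile/TFA/water gradient, UV 220 nm) and normalized to T=0 set at 100 for each pH.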

human GLP-1 receptor = target: T1, human GLP-1 receptor (Homo sapiens, UniProt P43220); assay: GLP-1 receptor potency assay (cAMP ALPHASCREEN, HEK293 cells stably expressing GLP-1 R); type: cell-based; conditions: cAMP response, HEK293 cells expressing human GLP-1 R
T1 construct: expressed in transfected cells
Source text: One useful in vitro assay for measuring GLP-1 and GLP-2 receptor activity is quantitation of cAMP, i.e. 3′-5′-cyclic adenosine monophosphate, which is a second messenger essential in many biological processes, and one of the most ubiquitous mechanisms for regulating cellular functions.
The cDNA encoding the human glucagon-like peptide 1 receptor (GLP-1 R) (primary accession number P43220) was cloned from the cDNA BC112126 (MGC:138331/IMAGE:8327594). The DNA encoding the GLP-1-R was amplified by PCR using primers encoding terminal restriction sites for subcloning. The 5′-end primers additionally encoded a near Kozak consensus sequence to ensure efficient translation. […] The PCR products encoding the GLP-1-R were subcloned into a mammalian expression vector containing a neomycin (G418) resistance marker. The mammalian expression vectors encoding the GLP-1-R were transfected into HEK293 cells by a standard calcium phosphate transfection method. 48 hours post-transfection, cells were seeded for limited dilution cloning and selected with 1 mg/ml G418 in the culture medium. Following 3 weeks in G418 selection clones were picked and tested in a functional GLP-1 receptor potency assay as described below.
The cAMP ALPHASCREEN® assay from Perkin Elmer was used to quantitate the cAMP response to activation of the GLP1 and GLP2 receptor, respectively. […] Data from test compounds eliciting an increase in the intracellular level of cAMP were normalized relative to the positive and negative control (vehicle) to calculate the EC50 and maximal response from the concentration response curve.

T1 sequence (P43220 24-463): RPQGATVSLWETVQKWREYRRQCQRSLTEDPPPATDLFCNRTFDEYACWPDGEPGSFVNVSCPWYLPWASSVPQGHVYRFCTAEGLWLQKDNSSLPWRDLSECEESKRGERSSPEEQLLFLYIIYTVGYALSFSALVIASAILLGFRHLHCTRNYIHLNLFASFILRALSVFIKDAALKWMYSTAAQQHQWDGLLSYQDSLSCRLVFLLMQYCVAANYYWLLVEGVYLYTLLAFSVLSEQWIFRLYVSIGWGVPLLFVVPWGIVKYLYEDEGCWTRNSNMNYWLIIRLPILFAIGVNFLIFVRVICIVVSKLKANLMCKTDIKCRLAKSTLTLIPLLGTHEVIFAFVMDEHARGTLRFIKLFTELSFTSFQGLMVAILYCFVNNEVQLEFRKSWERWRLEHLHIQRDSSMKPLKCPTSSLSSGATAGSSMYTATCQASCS

With `CC[C@H](C)[C@H](NC(=O)[C@H](Cc1ccccc1)NC(=O)[C@H](CC(=O)O)NC(=O)[C@H](CCCNC(=N)N)NC(=O)[C@H](C)NC(=O)[C@H](C)NC(=O)[C@H](CCC(=O)O)NC(=O)[C@H](CCCCNC(=O)CC[C@H](NC(=O)CCCCCCCCCCCCCCCCC(=O)O)C(=O)O)NC(=O)[C@H](CC(=O)O)NC(=O)[C@H](CC(C)C)NC(=O)[C@@H](NC(=O)[C@@H](NC(=O)[C@H](C)NC(=O)[C@H](CC(C)C)NC(=O)[C@H](CCC(=O)O)NC(=O)[C@H](CO)NC(=O)[C@@H](NC(=O)[C@H](Cc1ccccc1)NC(=O)[C@H](CO)NC(=O)CNC(=O)[C@H](CCC(=O)O)NC(=O)C(C)(C)NC(=O)[C@@H](N)Cc1c[nH]cn1)[C@@H](C)O)[C@@H](C)O)[C@@H](C)CC)C(=O)N[C@@H](C)C(=O)N[C@@H](Cc1c[nH]c2ccccc12)C(=O)N[C@@H](CC(C)C)C(=O)N[C@H](C(=O)N[C@@H](CCC(=O)O)C(=O)N[C@@H](Cc1c[nH]cn1)C(=O)N[C@@H](CCCCN)C(=O)N[C@H](C(=O)N[C@H](C(=O)N[C@@H](CC(=O)O)C(=O)O)[C@@H](C)O)[C@@H](C)CC)[C@@H](C)CC` [Compound 2] (HELM PEPTIDE1{H.[Aib].E.G.S.F.T.S.E.L.A.T.I.L.D.K.E.A.A.R.D.F.I.A.W.L.I.E.H.K.I.T.D}|PEPTIDE2{[O=C(O)CCCCCCCCCCCCCCCCC(=O)[*:2]].[gGlu]}$PEPTIDE1,PEPTIDE2,16:R3-2:R2$$$V2.0) the “pH 6 normalized stability” value ([1]; pH 6, 40° C.) was “A (>90% normalised stability)”, the “pH 7 normalized stability” value [1] was “A (>90% normalised stability)” and the EC50 (human GLP-1 receptor) was 0.13 nM.

With `CC[C@H](C)[C@H](NC(=O)[C@H](Cc1ccccc1)NC(=O)[C@H](CC(=O)O)NC(=O)[C@H](CCCNC(=N)N)NC(=O)[C@H](C)NC(=O)[C@H](C)NC(=O)[C@H](CC(C)C)NC(=O)[C@H](CCCCNC(=O)CC[C@H](NC(=O)CCCCCCCCCCCCCCCCC(=O)O)C(=O)O)NC(=O)[C@H](CC(=O)O)NC(=O)[C@H](CC(C)C)NC(=O)[C@@H](NC(=O)[C@@H](NC(=O)[C@H](C)NC(=O)[C@H](CC(C)C)NC(=O)[C@H](CCC(=O)O)NC(=O)[C@H](CO)NC(=O)[C@@H](NC(=O)[C@H](Cc1ccccc1)NC(=O)[C@H](CO)NC(=O)CNC(=O)[C@H](CCC(=O)O)NC(=O)C(C)(C)NC(=O)[C@@H](N)Cc1c[nH]cn1)[C@@H](C)O)[C@@H](C)O)[C@@H](C)CC)C(=O)N[C@@H](C)C(=O)N[C@@H](Cc1c[nH]c2ccccc12)C(=O)N[C@@H](CC(C)C)C(=O)N[C@H](C(=O)N[C@@H](CCC(=O)O)C(=O)N[C@@H](Cc1c[nH]cn1)C(=O)N[C@@H](CCCCN)C(=O)N[C@H](C(=O)N[C@H](C(=O)N[C@@H](CC(=O)O)C(=O)O)[C@@H](C)O)[C@@H](C)CC)[C@@H](C)CC` [Compound 11] (HELM PEPTIDE1{H.[Aib].E.G.S.F.T.S.E.L.A.T.I.L.D.K.L.A.A.R.D.F.I.A.W.L.I.E.H.K.I.T.D}|PEPTIDE2{[O=C(O)CCCCCCCCCCCCCCCCC(=O)[*:2]].[gGlu]}$PEPTIDE1,PEPTIDE2,16:R3-2:R2$$$V2.0) the “pH 7 normalized stability” value [1] was “A (>90% normalised stability)” and the EC50 (human GLP-1 receptor) was 0.32 nM.

Molecule `CC[C@H](C)[C@H](NC(=O)[C@H](Cc1ccccc1)NC(=O)[C@H](CC(=O)O)NC(=O)[C@H](CCCNC(=N)N)NC(=O)[C@H](C)NC(=O)[C@H](C)NC(=O)[C@H](CCC(N)=O)NC(=O)[C@H](CCCCNC(=O)COCCOCCNC(=O)[C@H](CCCCN)NC(=O)[C@H](CCC(=O)O)NC(=O)[C@H](CCCCN)NC(=O)CC[C@H](NC(=O)CCCCCCCCCCCCCCCCCCC(=O)O)C(=O)O)NC(=O)[C@H](CC(=O)O)NC(=O)[C@H](CC(C)C)NC(=O)[C@@H](NC(=O)[C@@H](NC(=O)[C@H](C)NC(=O)[C@H](CC(C)C)NC(=O)[C@H](CCC(=O)O)NC(=O)[C@H](CO)NC(=O)[C@@H](NC(=O)[C@H](Cc1ccccc1)NC(=O)[C@@H](NC(=O)CNC(=O)[C@H](CCC(=O)O)NC(=O)C(C)(C)NC(=O)[C@@H](N)Cc1c[nH]cn1)[C@@H](C)O)[C@@H](C)O)[C@@H](C)O)[C@@H](C)CC)C(=O)N[C@@H](C)C(=O)N[C@@H](Cc1c[nH]c2ccccc12)C(=O)N[C@@H](CC(C)C)C(=O)N[C@H](C(=O)N[C@@H](CCC(N)=O)C(=O)N[C@@H](Cc1c[nH]cn1)C(=O)N[C@@H](CCCCN)C(=O)N[C@H](C(=O)N[C@H](C(=O)N[C@@H](CC(=O)O)C(=O)O)[C@@H](C)O)[C@@H](C)CC)[C@@H](C)CC` [Compound 52] (HELM PEPTIDE1{H.[Aib].E.G.T.F.T.S.E.L.A.T.I.L.D.K.Q.A.A.R.D.F.I.A.W.L.I.Q.H.K.I.T.D}|PEPTIDE2{[O=C(O)CCCCCCCCCCCCCCCCCCC(=O)[*:2]].[gGlu].K.E.K.[O=C(COCCOCCN[*:1])[*:2]]}$PEPTIDE1,PEPTIDE2,16:R3-6:R2$$$V2.0) has an EC50 (human GLP-1 receptor) of 0.02 nM.

`CC[C@H](C)[C@H](NC(=O)[C@H](CC(C)C)NC(=O)[C@H](Cc1c[nH]c2ccccc12)NC(=O)[C@H](C)NC(=O)[C@@H](NC(=O)[C@H](Cc1ccccc1)NC(=O)[C@H](CC(=O)O)NC(=O)[C@H](CCCNC(=N)N)NC(=O)[C@H](C)NC(=O)[C@H](C)NC(=O)[C@H](CCC(N)=O)NC(=O)[C@H](CCCCNC(=O)CC[C@H](NC(=O)CCCCCCCCCCCCCCCCC(=O)O)C(=O)O)NC(=O)[C@H](CC(=O)O)NC(=O)[C@H](CC(C)C)NC(=O)[C@@H](NC(=O)[C@@H](NC(=O)[C@H](C)NC(=O)[C@H](CC(C)C)NC(=O)[C@H](CCC(=O)O)NC(=O)[C@H](CO)NC(=O)[C@H](CO)NC(=O)[C@H](Cc1ccccc1)NC(=O)[C@@H](NC(=O)CNC(=O)[C@H](CCC(=O)O)NC(=O)C(C)(C)NC(=O)[C@@H](N)Cc1c[nH]cn1)[C@@H](C)O)[C@@H](C)O)[C@@H](C)CC)[C@@H](C)CC)C(=O)N[C@@H](C)C(=O)N[C@@H](Cc1c[nH]cn1)C(=O)N[C@@H](CCCCN)C(=O)N[C@H](C(=O)N[C@H](C(=O)N[C@@H](CC(=O)O)C(=O)O)[C@@H](C)O)[C@@H](C)CC` [Compound 21] (HELM PEPTIDE1{H.[Aib].E.G.T.F.S.S.E.L.A.T.I.L.D.K.Q.A.A.R.D.F.I.A.W.L.I.A.H.K.I.T.D}|PEPTIDE2{[O=C(O)CCCCCCCCCCCCCCCCC(=O)[*:2]].[gGlu]}$PEPTIDE1,PEPTIDE2,16:R3-2:R2$$$V2.0) gave an EC50 (human GLP-1 receptor) of 1.8 nM.

`CC[C@H](C)[C@H](NC(=O)[C@H](Cc1ccccc1)NC(=O)[C@H](CC(=O)O)NC(=O)[C@H](CCCNC(=N)N)NC(=O)[C@H](C)NC(=O)[C@H](C)NC(=O)[C@H](CCC(N)=O)NC(=O)[C@H](CCCCNC(=O)COCCOCCNC(=O)[C@H](CCCCN)NC(=O)[C@H](CCC(=O)O)NC(=O)[C@H](CCCCN)NC(=O)CC[C@H](NC(=O)CCCCCCCCCCCCCCCCC(=O)O)C(=O)O)NC(=O)[C@H](CC(=O)O)NC(=O)[C@H](CC(C)C)NC(=O)[C@@H](NC(=O)[C@@H](NC(=O)[C@H](C)NC(=O)[C@H](CC(C)C)NC(=O)[C@H](CCC(=O)O)NC(=O)[C@H](CO)NC(=O)[C@H](CO)NC(=O)[C@H](Cc1ccccc1)NC(=O)[C@@H](NC(=O)CNC(=O)[C@H](CCC(=O)O)NC(=O)C(C)(C)NC(=O)[C@@H](N)Cc1c[nH]cn1)[C@@H](C)O)[C@@H](C)O)[C@@H](C)CC)C(=O)N[C@@H](C)C(=O)N[C@@H](Cc1c[nH]c2ccccc12)C(=O)N[C@@H](CC(C)C)C(=O)N[C@H](C(=O)N[C@@H](CCC(=O)O)C(=O)N[C@@H](Cc1c[nH]cn1)C(=O)N[C@@H](CCCCN)C(=O)N[C@H](C(=O)N[C@H](C(=O)N[C@@H](CC(=O)O)C(=O)O)[C@@H](C)O)[C@@H](C)CC)[C@@H](C)CC` [Compound 49] (HELM PEPTIDE1{H.[Aib].E.G.T.F.S.S.E.L.A.T.I.L.D.K.Q.A.A.R.D.F.I.A.W.L.I.E.H.K.I.T.D}|PEPTIDE2{[O=C(O)CCCCCCCCCCCCCCCCC(=O)[*:2]].[gGlu].K.E.K.[O=C(COCCOCCN[*:1])[*:2]]}$PEPTIDE1,PEPTIDE2,16:R3-6:R2$$$V2.0) gave an EC50 (human GLP-1 receptor) of 0.27 nM.
